# Results published in patent US10369134B2, “Nonracemic mixtures and uses thereof” (Sunovion Pharmaceuticals Inc., priority 2017, dated 2019).
# Assays:
# freely moving rats = test: Sleep study of 85:15 (R:S-amisulpride) and racemic amisulpride (EEG/EMG); type: in vivo; settings: rat, p.o., R-amisulpride content of the total dose
# Experimental: Groups in this study were as follows. Test compound was administered to rats in a cross-over design.
# Vehicle or fixed ratio amisulpride dosing solutions were orally administered 10 min before the beginning of light phase (light phase: 10:00 AM to 10:00 PM). The individual dosing volume was 4 mL/kg. The individual dosing volume was calculated based on the animals' body weight measured on each experimental day. At least 1-week wash-out period after each treatment was provided.
# The R-amisulpride and S-amisulpride were separately weighed. […]
# A radio transmitter was implanted intraperitoneally in each anesthetized animal (sodium pentobarbital, 32.4 mg/kg, i.p. and medetomidine hydrochloride, 0.5 mg/kg, i.p.). […] Electromyograms (EMG) were recorded from the dorsal neck muscle. […] EEG/EMG was recorded in the home cages in a soundproof box using Dataquest A.R.T. software (Data Science International, New Brighton, Minn., USA) at a sampling rate of 500 Hz. […]
# All data were expressed as a mean±SEM. Difference between 85/15 and 50/50 amisulpride at each dose in each sleep architecture (i.e. REM sleep duration, NREM sleep duration, and WAKE duration) during the first 4 hours after administration were assessed by a repeated measures one-way ANOVA, followed by post-hoc Bonferroni multiple comparison test. […]
# healthy subjects = test: REM suppression polysomnography (PSG) study of (R)-amisulpride; type: in vivo; settings: human; for decrease in the time spent in REM sleep / reduction of the portion of the night spent in REM: range is 90% confidence interval
# Experimental: REM suppression was the biomarker used to determine clinically-significant levels of 5-HT7 antagonism and its pharmacodynamics. REM suppression was assessed by total time in minutes spent in REM sleep and by the latency in minutes to REM sleep. […] REM suppression in human volunteers is an established translational biomarker useful to identify doses for antidepressant effects in patients.
# The primary endpoint was REM sleep suppression as determined at post dose time points in the measures of latency to REM sleep, REM sleep time in minutes, and percent decrease in REM sleep time relative to total sleep time.
# The results presented in Tables 6A-6C were determined from an analysis of the date based on a linear mixed model with terms for treatment, period, and treatment sequence as fixed effects, respective baseline PSG value as a continuous covariate, and treatment-by-baseline PSG interaction, and subject nested within sequence as a random effect, the Kenward and Roger correction for the degrees of freedom and an unstructured covariance structure to model the intrasubject correlation. The abbreviations used in Tables 6A-6C are as follows: PSG=polysomnography; CI=confidence interval; LS=least-squares; REM=rapid eye movement; SE=standard error.
smiles,measurement,setting,value
"CCN1CCC[C@@H]1CNC(=O)c1cc(S(=O)(=O)CC)c(N)cc1OC [(R)-amisulpride, R-4-Amino-N-[(1-ethyl-2-pyrrolidinyl)methyl]-5-(ethylsulfonyl)-2-methoxybenzamide]",dose of R-amisulpride at which REM sleep suppression was saturated,freely moving rats,≥ 50 mg/kg
same,decrease in REM sleep,healthy subjects; 340 mg (FIG. 15C),about 20 minutes
same,decrease in REM sleep,healthy subjects; 600 mg (FIG. 15C),about 30 minutes
same,subjects who reported adverse events,healthy subjects; of the 13 subjects dosed with 600 mg,3 subjects
same,suppression of REM sleep,healthy subjects; single dose 600 mg,clinically meaningful and statistically significant suppression of REM sleep
same,vital signs and ECGs,healthy subjects; single oral dose,normal
same,"Latency to REM Sleep, LS Mean Difference (SE) from placebo","healthy subjects; single oral dose 340 mg, n=20",28.23 (9.82) Minutes
same,"REM Percent, LS Mean Difference (SE) from placebo","healthy subjects; single oral dose 340 mg, n=20",−4.15 (1.09) %
same,"REM Time, LS Mean Difference (SE) from placebo","healthy subjects; single oral dose 340 mg, n=20",−18.45 (4.91) Minutes
same,"REM Percent, LS Mean (SE)","healthy subjects; single oral dose 340 mg, n=20, placebo 25.69 (0.92)",21.55 (0.92) %
same,"Latency to REM Sleep, LS Mean (SE)","healthy subjects; single oral dose 340 mg, n=20, placebo 77.03 (9.42)",105.25 (9.42) Minutes
same,"REM Time, LS Mean (SE)","healthy subjects; single oral dose 340 mg, n=20, placebo 110.05 (4.69)",91.60 (4.69) Minutes
same,decrease in the time spent in REM sleep,healthy subjects; single oral dose 340 mg,10 to 27 min
same,reduction of the portion of the night spent in REM,healthy subjects; single oral dose 340 mg,2-6 percentage points
same,"Latency to REM Sleep, LS Mean Difference (SE) from placebo","healthy subjects; single oral dose 600 mg, n=13",20.30 (9.39) Minutes
same,"REM Percent, LS Mean Difference (SE) from placebo","healthy subjects; single oral dose 600 mg, n=13",−6.24 (1.45) %
same,"REM Time, LS Mean Difference (SE) from placebo","healthy subjects; single oral dose 600 mg, n=13",−31.39 (7.99) Minutes
same,"REM Percent, LS Mean (SE)","healthy subjects; single oral dose 600 mg, n=13, placebo 24.30 (1.14)",18.06 (1.14) %
same,"Latency to REM Sleep, LS Mean (SE)","healthy subjects; single oral dose 600 mg, n=13, placebo 89.06 (7.71)",109.35 (7.71) Minutes
same,"REM Time, LS Mean (SE)","healthy subjects; single oral dose 600 mg, n=13, placebo 107.98 (5.65)",76.59 (5.65) Minutes
same,decrease in the time spent in REM sleep,healthy subjects; single oral dose 600 mg,18 to 45 min
same,reduction of the portion of the night spent in REM,healthy subjects; single oral dose 600 mg,4-9 percentage points
same,tolerability,healthy subjects; single oral dose 340 or 600 mg,well tolerated
